Results: PubChem BioAssay AID256 (DTP/NCI, 2004)
Values joined by “and” are separate entries in the source; they are usually repeats but may differ in a detail not shown here. Equal entries are not always repeated. Inconclusive results and toxic doses are left out. Rule for the calls: active = survival T/C of 150% or more; inactive = T/C below 125% in these data.

Tested on: CD2F1 mice, L1210 leukemia ip, survival T/C
Test: NCI In Vivo Anticancer Drug Screen. Data for tumor model L1210 Leukemia (intraperitoneal) in CD2F1 (CDF1) mice
Conditions: higher = longer survival
Procedure, shortened: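 Each value reflects a quotient of treated over vehicle control outcomes in mice with a transplanted tumor.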

[1] = endpoint: mean survival time, dose: 100.0 mg/kg/injection, schedule: Q01DX001 (ip), vehicle: saline with Tween-80
[2] = endpoint: mean survival time, dose: 100.0 mg/kg/injection, schedule: Q01DX009 (ip), vehicle: saline with Tween-80
[3] = endpoint: mean survival time, dose: 200.0 mg/kg/injection, schedule: Q01DX009 (ip), vehicle: saline with Tween-80
[4] = endpoint: mean survival time, dose: 400.0 mg/kg/injection, schedule: Q01DX001 (ip), vehicle: saline with Tween-80
[5] = endpoint: mean survival time, dose: 400.0 mg/kg/injection, schedule: Q01DX009 (ip), vehicle: saline with Tween-80
[6] = endpoint: mean survival time, dose: 50.0 mg/kg/injection, schedule: Q01DX009 (ip), vehicle: Klucel (hydroxypropylcellulose) (HPC)
[7] = endpoint: mean survival time, dose: 100.0 mg/kg/injection, schedule: Q01DX009 (ip), vehicle: Klucel (hydroxypropylcellulose) (HPC)
[8] = endpoint: mean survival time, dose: 100.0 mg/kg/injection, schedule: Q04DX003 (ip), vehicle: saline with Tween-80
[9] = endpoint: mean survival time, dose: 200.0 mg/kg/injection, schedule: Q04DX003 (ip), vehicle: saline with Tween-80
[10] = endpoint: mean survival time, dose: 400.0 mg/kg/injection, schedule: Q04DX003 (ip), vehicle: saline with Tween-80
[11] = endpoint: mean survival time, dose: 25.0 mg/kg/injection, schedule: Q04DX002 (ip), vehicle: saline with Tween-80

Measured: T/C

CCCN(CCC)S(=O)(=O)c1ccc(NC(=O)OC2CC(C)CCC2C(C)C)cc1 (configuration not stated)
inactive: endpoint: mean survival time, dose: 100.0 mg/kg/injection, schedule: Q01DX001 (ip), vehicle: saline 105 % of control | endpoint: mean survival time, dose: 200.0 mg/kg/injection, schedule: Q01DX001 (ip), vehicle: saline 100 % of control | endpoint: mean survival time, dose: 400.0 mg/kg/injection, schedule: Q01DX001 (ip), vehicle: saline 95 % of control

Nc1nc(NC(c2ccc(Cl)cc2)c2ccc(Cl)cc2)c2[nH]cnc2n1
inactive: endpoint: mean survival time, dose: 75.0 mg/kg/injection, schedule: Q01DX001 (ip), vehicle: other 103 % of control | endpoint: mean survival time, dose: 150.0 mg/kg/injection, schedule: Q01DX001 (ip), vehicle: other 101 % of control

O=C(Nc1cccc2ccccc12)OC1CCCCC1Br (configuration not stated)
inactive: endpoint: mean survival time, dose: 6.25 mg/kg/injection, schedule: Q01DX001 (ip), vehicle: saline with Tween-80 100 % of control | endpoint: mean survival time, dose: 12.5 mg/kg/injection, schedule: Q01DX001 (ip), vehicle: saline with Tween-80 92 % of control | endpoint: mean survival time, dose: 25.0 mg/kg/injection, schedule: Q01DX001 (ip), vehicle: saline with Tween-80 100 % of control | endpoint: mean survival time, dose: 50.0 mg/kg/injection, schedule: Q01DX001 (ip), vehicle: saline with Tween-80 93 % of control | [1] 89 % of control

O=C(NC1CC1(c1ccccc1)c1ccccc1)NC1CC1(c1ccccc1)c1ccccc1 (configuration not stated)
inactive: endpoint: mean survival time, dose: 9.35 mg/kg/injection, schedule: Q01DX001 (ip), vehicle: other 93 % of control | endpoint: mean survival time, dose: 18.7 mg/kg/injection, schedule: Q01DX001 (ip), vehicle: other 91 % of control | endpoint: mean survival time, dose: 37.5 mg/kg/injection, schedule: Q01DX001 (ip), vehicle: other 94 % of control

O=C(O)c1ccc(CC23CC4CC(CC(C4)C2)C3)cc1
inactive: [1] 91 % of control | [2] 96 % of control | [3] 91 % of control | [4] 91 % of control | [5] 86 % of control

CC1CCC(N=C2OCCN2N=O)CC1 (configuration not stated)
inactive: endpoint: mean survival time, dose: 3.12 mg/kg/injection, schedule: Q01DX001 (ip), vehicle: water 97 % of control | endpoint: mean survival time, dose: 6.25 mg/kg/injection, schedule: Q01DX001 (ip), vehicle: water 96 % of control | endpoint: mean survival time, dose: 12.5 mg/kg/injection, schedule: Q01DX001 (ip), vehicle: water 98 % of control | endpoint: mean survival time, dose: 25.0 mg/kg/injection, schedule: Q01DX001 (ip), vehicle: water 94 % of control | endpoint: mean survival time, dose: 50.0 mg/kg/injection, schedule: Q01DX001 (ip), vehicle: water 94 % of control | endpoint: mean survival time, dose: 100.0 mg/kg/injection, schedule: Q01DX001 (ip), vehicle: water 108 % of control

O=[N+]([O-])c1ccc(CSc2ncnc3c2ncn3C2OC(CO)C(O)C2O)cc1 (configuration not stated)
inactive: endpoint: median survival time, dose: 0.1 mg/kg/injection, schedule: Q01DX009 (ip), vehicle: saline 100 % of control | endpoint: median survival time, dose: 1.0 mg/kg/injection, schedule: Q01DX009 (ip), vehicle: saline 105 % of control | endpoint: median survival time, dose: 10.0 mg/kg/injection, schedule: Q01DX009 (ip), vehicle: saline 107 % of control

O=C(N/N=C\c1cc(Br)cc(Br)c1O)N/N=C/c1cc(Br)cc(Br)c1O
inactive: endpoint: mean survival time, dose: 25.0 mg/kg/injection, schedule: Q01DX009 (ip), vehicle: saline with Tween-80 117 % of control | endpoint: mean survival time, dose: 50.0 mg/kg/injection, schedule: Q01DX009 (ip), vehicle: saline with Tween-80 104 % of control and 111 % of control | [2] 116 % of control and 122 % of control | [3] 118 % of control and 94 % of control | [5] 116 % of control and 88 % of control

O=C(NCO)c1ccccc1
inactive: [6] 96 % of control | [7] 96 % of control | endpoint: mean survival time, dose: 200.0 mg/kg/injection, schedule: Q01DX009 (ip), vehicle: Klucel (hydroxypropylcellulose) (HPC) 96 % of control

OC(CCc1ccccc1)(C(F)(F)Cl)C(F)(F)Cl
inactive: [8] 98 % of control | [9] 89 % of control | [10] 92 % of control

Cc1ccc(Cl)c(S(=O)(=O)F)c1
inactive: [2] 88 % of control | [8] 106 % of control | [3] 103 % of control | [9] 93 % of control | [5] 101 % of control | [10] 100 % of control

CC12CCCC1=C1CCC3CC(OC(=O)c4ccccc4)CCC3(C)C1CC2 (configuration not stated)
inactive: [8] 100 % of control | [9] 96 % of control | [10] 100 % of control

CCOC(=O)c1[nH]cnc1/N=N/N(C)C
inactive: endpoint: mean survival time, dose: 16.5 mg/kg/injection, schedule: Q01DX009 (ip), vehicle: saline with Tween-80 120 % of control | [2] 109 % of control | [8] 105 % of control

CCC(=N\N=C(N)N)/C(C)=N\N=C(N)N
inactive: endpoint: mean survival time, dose: 15.0 mg/kg/injection, schedule: Q01DX009 (ip), vehicle: saline 95 % of control | endpoint: mean survival time, dose: 30.0 mg/kg/injection, schedule: Q01DX009 (ip), vehicle: saline 91 % of control

CN1C(=O)C(Cl)=C(Cl)C1=O
inactive: endpoint: mean survival time, dose: 1.56 mg/kg/injection, schedule: Q04DX003 (ip), vehicle: saline 103 % of control | endpoint: mean survival time, dose: 3.13 mg/kg/injection, schedule: Q04DX003 (ip), vehicle: saline 101 % of control | endpoint: mean survival time, dose: 6.25 mg/kg/injection, schedule: Q04DX003 (ip), vehicle: saline 101 % of control

Cc1ccc(Cl)cc1N=Cc1ccccc1O
inactive: [2] 98 % of control | endpoint: mean survival time, dose: 132.0 mg/kg/injection, schedule: Q04DX003 (ip), vehicle: saline with Tween-80 110 % of control | [3] 94 % of control | [9] 102 % of control | endpoint: mean survival time, dose: 300.0 mg/kg/injection, schedule: Q04DX003 (ip), vehicle: saline with Tween-80 100 % of control | [5] 97 % of control

Nc1ccc(C(=O)Nc2ccc(OCc3nc(N)nc(N)c3-c3ccc(Cl)cc3)cc2)cc1
inactive: [1] 97 % of control | endpoint: mean survival time, dose: 200.0 mg/kg/injection, schedule: Q01DX001 (ip), vehicle: saline with Tween-80 93 % of control | [4] 95 % of control

O=C(Oc1ccc(O)cc1)N(c1cccc2ccccc12)c1cccc2ccccc12
inactive: [11] 100 % of control | endpoint: mean survival time, dose: 50.0 mg/kg/injection, schedule: Q04DX002 (ip), vehicle: saline with Tween-80 95 % of control | endpoint: mean survival time, dose: 100.0 mg/kg/injection, schedule: Q04DX002 (ip), vehicle: saline with Tween-80 91 % of control and 98 % of control | endpoint: mean survival time, dose: 400.0 mg/kg/injection, schedule: Q04DX002 (ip), vehicle: saline with Tween-80 95 % of control

O=c1[nH]c2ccccc2nc1C(Cl)Cl
inactive: endpoint: mean survival time, dose: 25.0 mg/kg/injection, schedule: Q01DX009 (ip), vehicle: Klucel (hydroxypropylcellulose) (HPC) 105 % of control | [6] 100 % of control | endpoint: mean survival time, dose: 50.0 mg/kg/injection, schedule: Q04DX003 (ip), vehicle: Klucel (hydroxypropylcellulose) (HPC) 114 % of control | [7] 116 % of control | endpoint: mean survival time, dose: 100.0 mg/kg/injection, schedule: Q04DX003 (ip), vehicle: Klucel (hydroxypropylcellulose) (HPC) 105 % of control | endpoint: mean survival time, dose: 200.0 mg/kg/injection, schedule: Q04DX003 (ip), vehicle: Klucel (hydroxypropylcellulose) (HPC) 105 % of control | endpoint: median survival time, dose: 50.0 mg/kg/injection, schedule: Q04DX003 (ip), vehicle: Klucel (hydroxypropylcellulose) (HPC) 107 % of control | endpoint: median survival time, dose: 100.0 mg/kg/injection, schedule: Q04DX003 (ip), vehicle: Klucel (hydroxypropylcellulose) (HPC) 104 % of control | endpoint: median survival time, dose: 200.0 mg/kg/injection, schedule: Q04DX003 (ip), vehicle: Klucel (hydroxypropylcellulose) (HPC) 117 % of control

O=C(CC(=O)C(F)(F)C(F)(F)C(F)(F)F)C(F)(F)F.O=C(CC(=O)C(F)(F)C(F)(F)C(F)(F)F)C(F)(F)F.[Cu]
inactive: endpoint: mean survival time, dose: 3.13 mg/kg/injection, schedule: Q04DX002 (ip), vehicle: saline with Tween-80 90 % of control | endpoint: mean survival time, dose: 6.25 mg/kg/injection, schedule: Q04DX002 (ip), vehicle: saline with Tween-80 87 % of control | endpoint: mean survival time, dose: 12.5 mg/kg/injection, schedule: Q04DX002 (ip), vehicle: saline with Tween-80 102 % of control | [11] 98 % of control | endpoint: median survival time, dose: 25.0 mg/kg/injection, schedule: Q04DX002 (ip), vehicle: saline with Tween-80 111 % of control
